In ChEMBL document CHEMBL4402608 (J Med Chem, 2020):

Experiments:
Type in all cases: cell-based
D(2) dopamine receptor [1] = target: T1, D(2) dopamine receptor (Homo sapiens, UniProt P14416); test: Antagonist activity at human D2R expressed in CHOK1 cells assessed as inhibition of dopamine-induced beta-arrestin recruitment measured after 120 mins by beta-galactosidase based PathHunter assay
D(2) dopamine receptor [2] = target: T1, D(2) dopamine receptor; test: Agonist activity at human D2R expressed in CHOK1 cells assessed as induction of beta-arrestin recruitment measured after 90 mins by beta-galactosidase based PathHunter assay
D(3) dopamine receptor = D(3) dopamine receptor (Homo sapiens, UniProt P35462); test: Agonist activity at human D3R expressed in CHOK1 cells assessed as induction of beta-arrestin recruitment measured after 90 mins by beta-galactosidase based PathHunter assay

| SMILES | IC50 (D(2) dopamine receptor [1]) | EC50 (D(2) dopamine receptor [2]; read-out: EC50) [nM] | EC50 (D(3) dopamine receptor; read-out: EC50) [nM] | IC50 (D(2) dopamine receptor [1]; read-out: IC50) [nM] | further results |
| --- | --- | --- | --- | --- | --- |
| CCOc1ccc(OCCN2CCN(C(=O)c3cc4ccccc4[nH]3)CC2)cc1 | – | – | > 100000 | > 100000 | EC50 (D(2) dopamine receptor [2]): Not Active |
| COc1ccc(OCCN2CCN(C(=O)c3nc4ccccc4[nH]3)CC2)cc1 | – | – | 192 | > 50000 | EC50 (D(2) dopamine receptor [2]): Not Active |
| COc1ccc(OCCN2CCN(C(=O)c3cc4c(C)cccc4[nH]3)CC2)cc1 | – | – | 266 | – | – |
| COc1ccc(OCCN2CCN(C(=O)c3cc4ccc(Cl)cc4[nH]3)CC2)cc1 | – | – | 225 | – | – |
| COc1ccc(OCCN2CCN(C(=O)c3[nH]c4ccccc4c3C)CC2)cc1 | – | 4400 | 1900 | > 100000 | – |
| O=C(c1cc2ccccc2[nH]1)N1CCN(CCOc2cccnc2)CC1 | Not Active | 570 | 7 | – | – |
| Cc1cccc2[nH]c(C(=O)N3CCN(CCOc4cccnc4)CC3)cc12 | Not Active | 180 | – | – | – |
| COc1cccc(OCCN2CCN(C(=O)c3cc4cc(OC)ccc4[nH]3)CC2)c1 | Not Active | 1700 | 284 | – | – |
| O=C(c1cc2cccc(Cl)c2[nH]1)N1CCN(CCOc2cccnc2)CC1 | Not Active | 617 | – | – | – |
| COc1ccc(OCCN2CCN(C(=O)c3cc4ccc(C)cc4[nH]3)CC2)cc1 | Not Active | 1100 | 130 | – | – |
| O=C(c1cc2ccccc2o1)N1CCN(CCOc2cccnc2)CC1 | Not Active | 1700 | 42 | – | – |
| COc1ccc(OCCN2CCN(C(=O)c3cc4c(OC)cccc4[nH]3)CC2)cc1 | – | 5200 | – | > 100000 | – |
| COc1ccc(OCCN2CCN(C(=O)c3ccccc3OC)CC2)cc1 | – | – | 2500 | > 100000 | EC50 (D(2) dopamine receptor [2]): Not Active |
| COc1ccc(OCCN2CCN(C(=O)c3cc4ncccc4[nH]3)CC2)cc1 | Not Active | > 100000 | – | – | – |
| COc1ccc2cc(C(=O)N3CCN(CCOc4cccnc4)CC3)[nH]c2c1 | – | – | 6.4 | – | – |
| COc1ccc(OCCN2CCN(C(=O)c3cc4cc(C)ccc4[nH]3)CC2)cc1 | – | > 50000 | 611 | > 100000 | – |
| COc1ccc(OCCN2CCN(C(=O)c3cc4ccccc4[nH]3)CC2)c(Cl)c1 | – | – | 41 | > 10000 | EC50 (D(2) dopamine receptor [2]): Not Active |
| COc1ccc(OCCN(C)CCN(C)C(=O)c2ccc(OC)cc2)cc1 | – | – | – | – | EC50 (D(3) dopamine receptor): Not Active |
| COc1ccc(C(=O)N2CCN(CCOc3ccccc3OC)CC2)cc1 | – | – | 278 | – | – |
| COc1ccc(OCCCCN2CCN(C(=O)c3cc4ccccc4[nH]3)CC2)cc1 | – | – | – | – | EC50 (D(3) dopamine receptor): Not Active |
| COc1ccc(N(C)CCN2CCN(C(=O)c3cc4ccccc4[nH]3)CC2)cc1 | – | – | – | > 100000 | EC50 (D(2) dopamine receptor [2]): Not Active |
| Cc1cccc2cc(C(=O)N3CCN(CCOc4cccnc4)CC3)[nH]c12 | – | – | 25.7 | – | – |
| O=C(c1cc2ccncc2[nH]1)N1CCN(CCOc2cccnc2)CC1 | – | – | 81 | – | – |
| COc1ccc(OCC(C)N2CCN(C(=O)c3ccc(OC)cc3)CC2)cc1 (racemic) | – | – | – | > 100000 | EC50 (D(2) dopamine receptor [2]): Not Active |
| COc1ccc(OCCCN2CCN(C(=O)c3cc4ccccc4[nH]3)CC2)cc1 | – | – | – | – | EC50 (D(3) dopamine receptor): Not Active |
| COc1ccc(OCCN2CCN(C(=O)c3c[nH]c4ccccc34)CC2)cc1 | – | – | 210 | – | – |
| COc1ccc(OCCN2CCN(C(=O)c3ccc4[nH]ccc4c3)CC2)cc1 | – | 2500 | – | 4600 | – |
| O=C(c1cc2c(Cl)cccc2[nH]1)N1CCN(CCOc2cccnc2)CC1 | Not Active | 217 | – | – | – |
| COc1cccc(OCCN2CCN(C(=O)c3cc4ccccc4[nH]3)CC2)c1 | – | – | 33.8 | – | – |

Continued, in another order:

| IC50 (D(2) dopamine receptor [1]) | EC50 (D(2) dopamine receptor [2]; read-out: EC50) [nM] | EC50 (D(3) dopamine receptor; read-out: EC50) [nM] | IC50 (D(2) dopamine receptor [1]; read-out: IC50) [nM] | SMILES | further results |
| --- | --- | --- | --- | --- | --- |
| Not Active | 790 | 5 | – | O=C(c1cc2ccccc2[nH]1)N1CCN(CCOc2cncc(Cl)c2)CC1 | – |
| – | – | 550 | – | COc1ccc(OCCN2CCN(C(=O)c3cccc(OC)c3)CC2)cc1 | – |
| – | – | > 50000 | > 50000 | COc1ccc(OCCN2CCN(C(=O)C3CCCCC3)CC2)cc1 | EC50 (D(2) dopamine receptor [2]): Not Active |
| – | – | 13.3 | – | O=C(c1cc2ccccc2s1)N1CCN(CCOc2cccnc2)CC1 | – |
| – | – | – | > 50000 | COc1ccc(OCCN2CCN(c3ccc(OC)cc3)CC2)cc1 | EC50 (D(2) dopamine receptor [2]): Not Active; EC50 (D(3) dopamine receptor): Not Active |
| Not Active | 2400 | – | – | O=C(c1nc2ccccc2[nH]1)N1CCN(CCOc2cccnc2)CC1 | – |
| Not Active | 6200 | 37.6 | – | Cn1c(C(=O)N2CCN(CCOc3cccnc3)CC2)cc2ccccc21 | – |
| – | > 100000 | 3800 | > 100000 | O=C(c1cc2ccccc2[nH]1)N1CCN(CCOc2ccc(OC(F)(F)F)cc2)CC1 | – |
| Not Active | – | – | – | COc1ccc(OCCC2CCN(C(=O)c3cc4ccccc4[nH]3)CC2)cc1 | EC50 (D(2) dopamine receptor [2]): Not Active; EC50 (D(3) dopamine receptor): Not Active |
| Not Active | 2600 | – | – | COc1ccc2[nH]c(C(=O)N3CCN(CCOc4cccnc4)CC3)cc2c1 | – |
| – | – | 4400 | > 100000 | COc1ccc(OCCN2CCN(C(=O)c3ccc(OC)cc3)CC2C)cc1 (centres undefined) | EC50 (D(2) dopamine receptor [2]): Not Active |
| – | – | 710 | > 50000 | COc1ccc(OCCN2CCN(C(=O)c3cc4ccccc4[nH]3)CC2)cc1OC | EC50 (D(2) dopamine receptor [2]): Not Active |
| – | 4600 | 116 | > 100000 | COc1ccc(C(=O)N2CCN(CCOc3cccnc3)CC2)c(C)c1 | – |
| – | – | 167 | – | COc1ccc(OCCN2CCN(C(=O)c3cc4cccnc4[nH]3)CC2)cc1 | – |
| – | – | 548 | > 50000 | COc1ccc(OCCN2CCN(C(=O)c3ccccc3)CC2)cc1 | EC50 (D(2) dopamine receptor [2]): Not Active |
| Not Active | 4100 | – | – | O=C(c1n[nH]c2ccccc12)N1CCN(CCOc2cccnc2)CC1 | – |

| IC50 (D(2) dopamine receptor [1]) | EC50 (D(2) dopamine receptor [2]; read-out: EC50) [nM] | EC50 (D(3) dopamine receptor; read-out: EC50) [nM] | IC50 (D(2) dopamine receptor [1]; read-out: IC50) [nM] | SMILES | further results |
| --- | --- | --- | --- | --- | --- |
| – | – | – | > 100000 | O=C(c1cc2ccccc2[nH]1)N1CCN(CCOc2ccc(Br)cc2)CC1 | EC50 (D(2) dopamine receptor [2]): Not Active |
| Not Active | 1400 | – | – | O=C(c1cc2cc(Cl)ccc2[nH]1)N1CCN(CCOc2cccnc2)CC1 | – |
| Not Active | – | – | – | COc1ccc(OCCN2CCN(C(=O)c3cc4cc(Cl)ccc4[nH]3)CC2)cc1 | EC50 (D(2) dopamine receptor [2]): Not Active |
| – | 2300 | – | > 100000 | COc1ccc(C(=O)N2CCN(CCOc3ccccc3)CC2)cc1 | – |
| – | – | 114 | – | Cc1cc(OCCN2CCN(C(=O)c3cc4ccccc4[nH]3)CC2)ccc1Cl | – |
| – | 4200 | – | > 100000 | COc1ccc(OCCN2CCN(C(=O)c3ccc(OC)cc3)C(C)C2)cc1 (centres undefined) | – |
| – | – | 60.9 | – | O=C(c1cc2ccccc2[nH]1)N1CCN(CCOc2ccc3[nH]ccc3c2)CC1 | – |
| – | – | – | > 50000 | CCc1ccc(OCCN2CCN(C(=O)c3cc4ccccc4[nH]3)CC2)cc1 | EC50 (D(2) dopamine receptor [2]): Not Active |
| – | – | 285 | – | COc1cccc(OCCN2CCN(C(=O)c3nc4ccccc4[nH]3)CC2)c1 | – |
| – | – | 290 | – | O=C(c1cc2ccccc2[nH]1)N1CCN(CCOc2ccc3c(c2)OCO3)CC1 | – |
| Not Active | 183 | – | – | O=C(c1cc2ccc(Cl)cc2[nH]1)N1CCN(CCOc2cccnc2)CC1 | – |
| – | – | 80 | – | Cc1c(C(=O)N2CCN(CCOc3cccnc3)CC2)[nH]c2ccccc12 | – |
| – | – | 98 | – | COc1ccc(C(=O)N2CCN(CCOc3cccc(OC)c3)CC2)cc1 | – |
| Not Active | – | – | – | O=C(c1cc2ccccc2[nH]1)N1CCN(CCOc2ccc([N+](=O)[O-])cc2)CC1 | EC50 (D(2) dopamine receptor [2]): Not Active |
| – | – | 3300 | – | COc1ccc(OCCN2CCN(C(=O)c3cc4ccccc4s3)CC2)cc1 | – |
